From ChEMBL document CHEMBL6134906, “Design, Synthesis, and Biological Evaluation of Selective STING Synergists That Enhance cGAMP-STING Pathway Activation without Inherent Agonist Activity” (J Med Chem, 2025) come the findings set out here.

For experiment [1], the target named is Stimulator of interferon genes protein (Homo sapiens, UniProt Q86WV6).
For a further experiment, the system named is THP-1. The experiment is described as follows: Cytotoxicity against human THP-1 cells assessed as cell viability at 100 uM incubated for 48 hrs by CellTiter Glo luminescent cell viability assay relative to control. The settings on record: THP-1, 48 h, read-out: Activity.

A value given as a limit tells only on which side of the number the result lay.

Chain of Stimulator of interferon genes protein (Q86WV6 whole entry): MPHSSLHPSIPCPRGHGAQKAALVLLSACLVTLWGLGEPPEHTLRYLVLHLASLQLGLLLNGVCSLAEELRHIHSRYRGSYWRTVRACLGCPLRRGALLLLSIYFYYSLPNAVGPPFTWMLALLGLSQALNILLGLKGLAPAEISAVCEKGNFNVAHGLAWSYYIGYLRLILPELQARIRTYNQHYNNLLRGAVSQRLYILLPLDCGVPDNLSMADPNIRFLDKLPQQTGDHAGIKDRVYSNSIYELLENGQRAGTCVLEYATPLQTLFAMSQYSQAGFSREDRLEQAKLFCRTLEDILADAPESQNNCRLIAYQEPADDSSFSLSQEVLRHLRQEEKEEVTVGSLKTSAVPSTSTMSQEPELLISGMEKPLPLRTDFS

As for `COc1cc2c(=O)c3cccc(CC(=O)O)c3[nH]c2c(C)c1C`, the IC50 in experiment [1] is 28 µM. Moreover, the viability at 100 µM with THP-1 is 91.4%.
On the same counts, the results for `Cc1ccc2c(=O)c3cc(Cl)cc(CC(=O)O)c3[nH]c2c1C` are more than 100 µM and 83.4%.
The matching figures for `Cc1ccc2c(=O)c3c(F)ccc(CC(=O)O)c3[nH]c2c1C`: more than 100 µM and 103%.
As to `COc1cc2c(=O)c3cc(Cl)cc(CC(=O)O)c3[nH]c2c(C)c1C`, the viability at 100 µM in the experiment with THP-1 came out at 82%.
With `COc1cc2c(=O)c3cc(C)ccc3n(CC(=O)O)c2c(C)c1C`, in experiment [1], it took 25.1 µM to reach half-maximal inhibition (IC50). The viability at 100 µM in the experiment on THP-1 is 105%.
As for `Cc1ccc2c(=O)c3cc(F)cc(CC(=O)O)c3[nH]c2c1C`, the IC50 in experiment [1] was more than 100 µM. Also, in the experiment on THP-1, the viability at 100 µM is 99%.
Consider `CCOC(=O)Cn1c2ccc(OC)cc2c(=O)c2cc(OC)c(C)c(C)c21`, for which it took 26 µM to reach half-maximal inhibition in experiment [1] (IC50). Further, the viability at 100 µM in the experiment with THP-1 came out at 102%.
On the same counts, the results for `COc1cc(C(=O)O)c2[nH]c3c(C)c(C)ccc3c(=O)c2c1` are more than 100 µM and 91.3%.
On the same counts, the results for `COc1cc2c(=O)c3cc(C)cc(C(=O)O)c3[nH]c2c(C)c1C` are 5.95 µM and 98.4%.
The matching figures for `COc1ccc2c(c1)c(=O)c1ccc(C)c(C)c1n2CC(=O)O`: more than 100 µM and 95.8%.
On to `COc1cc2c(=O)c3cccc(C(=O)O)c3[nH]c2c(C)c1C`, for which the viability at 100 µM in the experiment on THP-1 turned out to be 92.1%.
Still for that read-out and setting: the same measure for `COc1cc(C(=O)O)c2[nH]c3c(C)c(C)c(OC)cc3c(=O)c2c1`: 96.5%.
Regarding `CCOC(=O)Cn1c2ccccc2c(=O)c2cc(OC)c(C)c(C)c21`, the viability at 100 µM in the experiment with THP-1 is 93.5%.
As to `COc1cc(CC(=O)O)c2[nH]c3c(C)c(C)c(OC)cc3c(=O)c2c1`, in experiment [1], inhibition was half-maximal at 11.4 µM (IC50). Besides, the viability at 100 µM in the experiment with THP-1 was found to be 86.7%.
Molecule `Cc1ccc2c(=O)c3cccc(CC(=O)O)c3[nH]c2c1C` returned a concentration for half-maximal inhibition (IC50) in experiment [1] of more than 100 µM. Also, the viability at 100 µM with THP-1 stood at 93.4%.
On to `COc1cc2c(=O)c3c(F)ccc(CC(=O)O)c3[nH]c2c(C)c1C`, for which, in the experiment on THP-1, the viability at 100 µM was found to be 87.8%.
In the case of `COc1cc2c(=O)c3c(Cl)ccc(CC(=O)O)c3[nH]c2c(C)c1C`, the viability at 100 µM with THP-1 was found to be 95.4%.
`Cc1ccc2c(=O)c3c(Cl)ccc(CC(=O)O)c3[nH]c2c1C` had an IC50 in experiment [1] of more than 100 µM. The viability at 100 µM with THP-1 is 87.7%.
Take `CCOC(=O)Cn1c2ccc(OC)cc2c(=O)c2ccc(C)c(C)c21`: the IC50 in experiment [1] is more than 100 µM. Further, the viability at 100 µM in the experiment on THP-1 was determined as 99.2%.
In the case of `COC(=O)Cn1c2ccc(C)cc2c(=O)c2cc(OC)c(C)c(C)c21`, the IC50 in experiment [1] came out at 41.5 µM. The viability at 100 µM in the experiment with THP-1 worked out at 85.7%.
On the same counts, the results for `COc1ccc2c(c1)c(=O)c1cc(OC)c(C)c(C)c1n2CC(=O)OCC(C)(C)C` are 33.8 µM and 93.3%.
In turn, `COc1ccc2[nH]c3c(C)c(C)ccc3c(=O)c2c1` displayed an IC50 in experiment [1] of 13.7 µM. Moreover, the viability at 100 µM in the experiment with THP-1 stood at 98.8%.
In turn, `COc1ccc2c(c1)c(=O)c1cc(OC)c(C)c(C)c1n2CC(=O)O` registered an IC50 in experiment [1] of 11.1 µM. The viability at 100 µM in the experiment on THP-1 came to 83.3%.
For the molecule `COc1cc2c(=O)c3cc(F)cc(CC(=O)O)c3[nH]c2c(C)c1C`, the viability at 100 µM with THP-1 amounted to 106%.
On to `COc1cc2c(=O)c3ccccc3n(CC(=O)O)c2c(C)c1C`, for which the IC50 in experiment [1] is 8.26 µM. For the same molecule, the viability at 100 µM in the experiment on THP-1 was found to be 86.9%.
